# Measured values published in US20200263231A1, “Fluorogenic dyes for high sensitivity DNA detection” (LIFE TECHNOLOGIES CORPORATION, priority 2016, published 2020).
# Columns and labels:
# [1] = UV/VIS absorption spectra; type: physicochemical; settings: 10 μM compound in 50 mM potassium phosphate buffer (pH 7.0)
# Protocol: The UV/VIS absorption spectra were obtained with 10 μM compound solution in 50 mM potassium phosphate buffer (pH 7.0) in a final volume of 3 mL. Measurements were carried out using a Lambda 245 spectrophotometer from Perkin Elmer.
# calf thymus DNA = assay: Fluorescence emission and enhancement of compounds bound to calf thymus DNA; type: binding; settings: 0.8 μM compound with 500 ng/ml calf thymus DNA in TE buffer; for Emission Max: excited at 488 nm; for Fluorescence Enhancement: emission area 500-715 nm compared to compound 1, defined as 1000-fold
# Protocol: Compounds 1-65 were prepared and their fluorescence absorption and emission characteristics were measured. Intrinsic fluorescence of the compounds only (without DNA) was negligible. Emission spectra for the compounds bound to dsDNA were obtained by incubating 0.8 μM compound with 500 ng/ml calf thymus DNA in TE buffer (10 mM Tris-HCl, pH 7.5, 1 mM EDTA) in a final volume of 3 ml. Measurements were made using PerkinElmer LS 55 (F-11) Fluorescence spectrometer. Samples were excited at 488 nm and fluorescence emission was measured with emission slit widths of 2.5 nm. Absorption maxima were determined according to standard techniques.
# Fluorescence enhancement measurements of the compounds were obtained by incubating 0.8 μM compound with 500 ng/ml calf thymus DNA with compounds at a final concentration of 0.8 μM in TE buffer. Compound 1 was used as an internal standard to control for variability (e.g., in excitation light intensity). The area-under-curve of fluorescence emission spectra from 500 nm to 715 nm was calculated, and compared to that of compound 1, which was defined as having 1000-fold fluorescence enhancement relative to fluorescence of the compound alone.
Structure (SMILES),Absorbance Max [1],Emission Max (calf thymus DNA),Fluorescence Enhancement (calf thymus DNA)
CCN(CC[N+](C)(C)C)C1=C/C(=C/c2sc3ccccc3[n+]2C)c2ccc(OC)cc2N1c1ccccc1.[I-].[I-] [Compound 56],499 nm,523 nm,894 fold
CCN(CCC[N+](C)(C)CC)C1=C/C(=C/c2sc3ccccc3[n+]2C)c2ccccc2N1c1ccccc1.[I-].[I-] [Compound 17],496 nm,523 nm,865 fold
C[n+]1ccn(C2=C/C(=C/c3sc4ccccc4[n+]3C)c3ccccc3N2c2ccccc2)c1.[I-].[I-] [Compound 62],519 nm,–,0.3 fold
CCCCN(CCC[N+](C)(C)Cc1ccccc1)C1=CC(=Cc2sc3ccccc3[n+]2C)c2ccc(OC)cc2N1c1ccccc1.[I-].[I-] [Compound 39],490 nm,517 nm,1080 fold
CCCCN(CCC[N+](C)(C)Cc1cccc(OC)c1)C1=CC(=Cc2sc3ccccc3[n+]2C)c2ccc(OC)cc2N1c1ccccc1.[Br-].[I-] [Compound 40],490 nm,520 nm,1050 fold
CCCCN(CCC[N+](C)(C)Cc1cccc(OC)c1)C1=C/C(=C/c2sc3ccccc3[n+]2C)c2ccccc2N1c1ccccc1.[Br-].[I-] [Compound 14],497 nm,526 nm,907 fold
CCC[N+](C)(C)CCN(CC)C1=C/C(=C/c2sc3ccccc3[n+]2C)c2ccccc2N1c1ccccc1.[I-].[I-] [Compound 31],506 nm,527 nm,642 fold
CN(C)CCCN(C)C1=C/C(=C/c2sc3ccccc3[n+]2C)c2ccccc2N1c1ccccc1.[I-] [Compound 21],491 nm,522 nm,639 fold
CCN(CCN(C)C)C1=C/C(=C/c2sc3ccccc3[n+]2C)c2ccccc2N1c1ccccc1.[Cl-] [Compound 28],504 nm,525 nm,672 fold
CCN(CCC[N+](C)(C)Cc1ccccc1)C1=C/C(=C/c2sc3ccccc3[n+]2C)c2ccccc2N1c1ccccc1.[Br-].[I-] [Compound 19],497 nm,524 nm,884 fold
CCCCN(CCC[N+](C)(C)CC)C1=C/C(=C/c2sc3ccccc3[n+]2C)c2ccccc2N1c1ccccc1.[I-].[I-] [Compound 10],496 nm,526 nm,926 fold
CCCCN(CCC[N+](C)(C)CC)C1=CC(=Cc2sc3ccccc3[n+]2C)c2ccc(OC)cc2N1c1ccccc1.[I-].[I-] [Compound 36],489 nm,521 nm,1071 fold
CCCN(CCC[N+](C)(C)CCO)C1=C/C(=C/c2sc3ccccc3[n+]2C)c2ccccc2N1c1ccccc1.[I-].[I-] [Compound 5],501 nm,523 nm,954 fold
CCN(CC[N+](C)(C)C)C1=C/C(=C/c2sc3ccccc3[n+]2C)c2ccccc2N1c1ccccc1.[Cl-].[I-] [Compound 29],506 nm,528 nm,648 fold
CCCCN(CCC[N+](C)(C)CCC)C1=CC(=Cc2sc3ccccc3[n+]2C)c2ccc(OC)cc2N1c1ccccc1.[I-].[I-] [Compound 37],489 nm,519 nm,1089 fold
CCN(CCC[N+](C)(C)CCO)C1=C/C(=C/c2sc3ccccc3[n+]2C)c2ccccc2N1c1ccccc1.[I-].[I-] [Compound 18],496 nm,524 nm,882 fold

Structure (SMILES),Absorbance Max [1],Emission Max (calf thymus DNA),Fluorescence Enhancement (calf thymus DNA)
C[n+]1c(/C=C2/C=C(CCC[N+](C)(C)C)N(c3ccccc3)c3ccccc32)sc2ccccc21 [Compound 65],527 nm,530 nm,136 fold
CCCN(CCC[N+](C)(C)Cc1ccccc1)C1=C/C(=C/c2sc3ccccc3[n+]2C)c2ccc(OC)cc2N1c1ccccc1.[Br-].[I-] [Compound 46],494 nm,520 nm,931 fold
CCN(CCC[N+](C)(C)CCO)C1=C/C(=C/c2sc3ccccc3[n+]2C)c2ccc(OC)cc2N1c1ccccc1 [Compound 52],490 nm,519 nm,1031 fold
CCN(CCC[N+](C)(C)Cc1cccc(OC)c1)C1=CC(=Cc2sc3ccccc3[n+]2C)c2ccc(OC)cc2N1c1ccccc1.[Br-].[I-] [Compound 54],490 nm,517 nm,1008 fold
CCCCN(CCC[N+](C)(C)CCO)C1=C/C(=C/c2sc3ccccc3[n+]2C)c2ccccc2N1c1ccccc1.[I-].[I-] [Compound 12],496 nm,525 nm,937 fold
CCCN(CCC[N+](C)(C)CCO)C1=CC(=Cc2sc3ccccc3[n+]2C)c2ccc(OC)cc2N1c1ccccc1.[I-].[I-] [Compound 45],494 nm,517 nm,1093 fold
CCCCN(CCC[N+](C)(C)Cc1ccccc1)C1=C/C(=C/c2sc3ccccc3[n+]2C)c2ccccc2N1c1ccccc1.[Br-].[I-] [Compound 13],496 nm,523 nm,922 fold
CCCN(CCC[N+](C)(C)CC)C1=C/C(=C/c2sc3ccccc3[n+]2C)c2ccccc2N1c1ccccc1.[Cl-].[I-] [Compound 3],501 nm,524 nm,997 fold
CN(C)CCCC1=C/C(=C/c2sc3ccccc3[n+]2C)c2ccccc2N1c1ccccc1 [Compound 64],527 nm,529 nm,204 fold
CN(CCC[N+](C)(C)CCO)C1=C/C(=C/c2sc3ccccc3[n+]2C)c2ccccc2N1c1ccccc1.[I-].[I-] [Compound 25],497 nm,523 nm,640 fold
CN(CCC[N+](C)(C)C)C1=C/C(=C/c2sc3ccccc3[n+]2C)c2ccccc2N1c1ccccc1.[I-].[I-] [Compound 22],497 nm,520 nm,639 fold
C[n+]1c(/C=C2/C=C(n3ccnc3)N(c3ccccc3)c3ccccc32)sc2ccccc21.[I-] [Compound 61],514 nm,540 nm,26 fold
CCCCN(CCC[N+](C)(C)CCO)C1=CC(=Cc2sc3ccccc3[n+]2C)c2ccc(OC)cc2N1c1ccccc1.[I-].[I-] [Compound 38],489 nm,520 nm,1089 fold
CCN(CC[N+](C)(C)Cc1cccc(OC)c1)C1=C/C(=C/c2sc3ccccc3[n+]2C)c2ccccc2N1c1ccccc1.[Br-].[I-] [Compound 33],507 nm,526 nm,652 fold
CCCCN(CCC[N+](C)(C)CCC)C1=C/C(=C/c2sc3ccccc3[n+]2C)c2ccccc2N1c1ccccc1.[I-].[I-] [Compound 11],496 nm,524 nm,903 fold
"CCCN(CCCN(C)C)C1=C/C(=C/c2sc3ccccc3[n+]2C)c2ccccc2N1c1ccccc1 [Compound 1, reference compound]",500 nm,523 nm,1000 fold
